For 143 molecules, logP results are on record in the SangsterLogP compilation.

`O=C(c1ccccc1)c1ccncc1`: the logP worked out at 1.98.
The value for `Cc1cn([C@H]2C=C[C@@H](CO)O2)c(=O)[nH]c1=O` was -0.72.
In turn, `O/N=C/c1ccccc1` showed a logP of 1.75.
Under `Cc1ccc([N+](=O)[O-])cc1` stands 2.37; under `CN(C)C(=O)Nc1ccccc1`, 0.98.
Turning to `Nc1ccc(C(=O)O)c([N+](=O)[O-])c1`, the logP is 0.38.
Turning to `CC/C(=C(/CC)c1ccc(O)cc1)c1ccc(O)cc1`, the logP came out at 5.07.
The value for `Cc1cc2ccccc2[nH]1` was 2.53; that for `Cc1cccc(C)c1C` was 3.66; that for `O=C(O)c1cccnc1` was 0.36.
Take `NNC(=O)c1ccccc1`: the logP is 0.19.
For the molecule `CC1(C)SC2C(NC(=O)C(N)c3ccc(O)cc3)C(=O)N2C1C(=O)O` (stereo not drawn), the logP turned out to be 0.87.
`CCn1cc(C(=O)O)c(=O)c2ccc(C)nc21` displayed a logP of 1.59.
In turn, `CCOc1ccc(O)cc1` had a logP of 1.81.
The value for `CCCN(CCC)N=O` was 1.36; that for `O=C1CN=C(c2ccccc2)c2cc(Cl)ccc2N1CC1CC1` was 3.73.
With `CC1(C)SC2C(NC(=O)C(O)c3ccccc3)C(=O)N2C1C(=O)O` (stereo not drawn), the logP stood at 1.4.
The value for `CCOC(=O)Nc1ccccc1` was 2.3.
In turn, `O=C(CCCN1CCC(O)(c2ccc(Cl)cc2)CC1)c1ccc(F)cc1` came in with a logP of 3.36.
The molecule `CCCCCC=O` came in with a lipophilicity (logP) of 1.78.
For `CCCCCCCN`, the logP worked out at 2.57.
The value for `CBr` was 1.19.
As to `CC(C)(C)CO`, the logP came out at 1.31.
Turning to `CCOC(=O)C(C#N)=NNc1cc(Cl)cc(Cl)c1`, the logP was found to be 3.82.
`O=[N+]([O-])c1ccc(N=C=S)cc1` registered a lipophilicity (logP) of 3.62.
Molecule `Cc1ccc2c([N+](=O)[O-])cc[n+]([O-])c2c1` registered a logP of 1.42.
`Clc1ccc(Cl)cc1` had a log partition coefficient (logP) of 3.44.
Under `CN1CCc2cccc3c2C1Cc1ccc(O)c(O)c1-3` (stereo not drawn) stands 2.3.
The value for `NCCc1ccc(O)c(O)c1` was -0.98.
For the molecule `O=C(c1ccccc1)c1ccc(O)cc1`, the logP stood at 3.07.
Under `[O-][n+]1ccc(Cl)c2ccccc21` stands 1.08.
Take `CC(C)C(=O)C(C#N)=NNc1ccc(Cl)cc1C(F)(F)F`: the logP was found to be 5.67.
Molecule `C=CCc1ccccc1OCC(O)CNC(C)C` (stereo not drawn) came in with a logP of 3.1.
The molecule `C1CCCC1` returned a logP of 3.
Under `CCBr` stands 1.61.
The value for `Cc1ccc(OCC(=O)O)cc1` was 1.86; that for `O=c1ccn([C@H]2C[C@H](O)[C@@H](CO)O2)c(=O)[nH]1` was -1.51; that for `O=NN(CCCl)C(=O)NC1CCCCC1` was 2.83.
As to `Oc1ncnc2[nH]cnc12`, the log partition coefficient (logP) is -1.11.
The value for `N[C@@H](Cc1ccccc1)C(=O)O` was -1.38; that for `NS(=O)(=O)c1ccc(Br)cc1` was 1.36.
For `COC(=O)C(C#N)=NNc1ccc(Cl)cc1C(F)(F)F`, the logP came to 4.66.
Regarding `COc1ccc(CN(CCN(C)C)c2ccccn2)cc1`, the logP is 3.27.
The value for `Cc1cccc2c([N+](=O)[O-])cc[n+]([O-])c12` was 1.59; that for `Cn1c(CO)cnc1[N+](=O)[O-]` was -0.03.
Molecule `Cc1c[nH]c2ccccc12` returned a logP of 2.6.
With `Nc1nc2[nH]nnc2c(=O)[nH]1`, the logP is -0.71.
As to `CCOC(C)=O`, the log partition coefficient (logP) worked out at 0.73.
For the molecule `C1CC1`, the logP stood at 1.72.
The molecule `CCCCNC(=O)NS(=O)(=O)c1ccc(N)cc1` displayed a logP of 1.01.
The value for `O=C(O)Cc1ccc(Cl)cc1` was 2.12; that for `O=C1OC(=O)c2ccccc21` was 1.6; that for `Oc1cccc2cccnc12` was 2.02.
Under `COc1ccccc1C(=O)O` stands 1.59.
Molecule `CCOC(=O)c1ccc(N)cc1` yielded a logP of 1.86.
Under `C[C@]12CCC(=O)C=C1CC[C@@H]1[C@@H]2C(=O)C[C@@]2(C)[C@H]1CC[C@]2(O)C(=O)CO` stands 1.47; under `CCN(C)C`, 0.7.
Under `Oc1cccc(C(F)(F)F)c1` stands 2.95.
Under `COc1ccccc1CO` stands 1.13.
In turn, `C=CC` showed a logP of 1.77.
`NCCc1c[nH]c2ccccc12`: the lipophilicity (logP) is 1.55.
The value for `CC(C)(c1ccc(O)cc1)c1ccc(O)cc1` was 3.32; that for `CC(C)=O` was -0.24; that for `NC(CCCc1ccccc1)C(=O)O` (stereo not drawn) was -0.36.
Under `O=C(O)COc1ccccc1Cl` stands 1.86; under `NS(=O)(=O)c1ccccc1`, 0.31; under `C1CCOC1`, 0.46.
Under `COc1ccc(CC(C)N)c(OC)c1` (stereo not drawn) stands 1.75.
`Cc1cc(Cl)ccc1O` came in with a logP of 2.63.
`CCCNCCC` yielded a log partition coefficient (logP) of 1.67.
The value for `OCc1ccc(O)cc1` was 0.25.
For the molecule `COc1ccccc1O`, the logP was determined as 1.32.
Under `[N-]=[N+]=N[C@H]1C[C@H](n2ccc(=O)[nH]c2=O)O[C@@H]1CO` stands -0.32; under `CCCC(C)=O`, 0.91; under `Nc1ccc(C(=O)O)cc1Br`, 1.4.
Take `CCOc1ccc([N+](=O)[O-])cc1`: the logP was 2.53.
`CCOC(=O)Cc1ccccc1` yielded a log partition coefficient (logP) of 2.28.
Under `c1ccc(-c2cccc(-c3ccccc3)n2)cc1` stands 4.82; under `CN(c1ccccc1)c1ccccc1`, 3.9; under `NS(=O)(=O)c1ccccc1[N+](=O)[O-]`, 0.34.
Under `O=[N+]([O-])c1cccc2c1c([N+](=O)[O-])cc[n+]2[O-]` stands 0.95; under `Cc1cn([C@H]2C[C@H](O)[C@@H](CO)O2)c(=O)[nH]c1=O`, -0.93.
Turning to `CCOCCO`, the logP was -0.32.
Under `CCc1ccccc1OCC(=O)O` stands 2.53.
For the molecule `CCCCN`, the logP was 0.97.
Under `c1ccc2c(c1)CCC2` stands 3.18; under `Cc1ncc(CO)c(CO)c1O`, -0.77; under `CC(=O)c1ccc(C)cc1`, 2.1.
Molecule `COc1cccc(/C=C/[N+](=O)[O-])c1` returned a logP of 2.37.
On to `Nc1cccc(Cl)c1Cl`, for which the logP amounted to 2.82.
The molecule `Cc1cccc(Nc2ccccc2C(=O)O)c1C` registered a logP of 5.12.
For `O=[N+]([O-])c1cc[n+]([O-])c2c(F)cccc12`, the logP amounted to 1.
Molecule `Nc1ccc(C(F)(F)F)cc1` gave a logP of 1.95.
The value for `CNCC(O)c1ccc(O)c(O)c1` (stereo not drawn) was -1.37; that for `COC(=O)[C@H]1[C@@H](OC(=O)c2ccccc2)C[C@@H]2CC[C@H]1N2C` was 2.3; that for `Cn1c([N+](=O)[O-])cnc1/C=C/c1ccnc(N)n1` was 0.85.
`COc1ccc(NS(=O)(=O)c2ccc(N)cc2)cc1`: the logP stood at 1.51.
Molecule `OCCN1CCN(CC/C=C2\c3ccccc3Sc3ccc(Cl)cc32)CC1` showed a logP of 4.18.
Under `O=C(O)COc1ccc(F)cc1` stands 1.64.
The value for `Cc1cccnc1` was 1.2.
The value for `Nc1ncnc2c1ncn2[C@@H]1O[C@H](CO)C[C@H]1O` was -0.61; that for `CN(C)CC/C=C1\c2ccccc2Sc2ccc(Cl)cc21` was 5.18.
`N#Cc1cccs1`: the logP was found to be 1.27.
Under `c1ccc(Cc2ccccc2)cc1` stands 4.14; under `NCCc1c[nH]cn1`, -0.7.
Under `COC(=O)C(C#N)=NNc1ccccc1C(F)(F)F` stands 3.7; under `NS(=O)(=O)c1ccc(O)cc1`, 0.06.
The value for `CCCCC1(CC)C(=O)NC(=O)NC1=O` was 1.73; that for `CNc1ccc([N+](=O)[O-])cc1` was 2.04.
On to `c1cnccn1`, for which the logP is -0.26.
Under `c1ccc2[nH]ccc2c1` stands 2.14; under `Nc1nc2c(ncn2COCCO)c(=O)[nH]1`, -1.56.
The value for `NC12CC3CC(CC(C3)C1)C2` was 2.44; that for `COc1nnc(C(C)C)c(=O)n1N` was -0.06; that for `CN(C)C(=O)Nc1ccc(Cl)cc1` was 1.94.
The value for `O=[N+]([O-])c1cccc2cccnc12` was 1.4; that for `NC(N)=O` was -2.11.
As to `Nc1ccc2cc3ccccc3nc2c1`, the logP was 2.77.
The value for `CN1CC[C@]23c4c5ccc(O)c4O[C@H]2C(=O)CC[C@@]3(O)[C@H]1C5` was 0.83; that for `CCCCNCCC` was 2.12.
Molecule `CN(C)C` had a logP of 0.16.
The value for `Cc1ccc(N(C)C)cc1` was 2.81.
Under `CC(=O)CC(C)=O` stands 0.4; under `c1ncncn1`, -0.73; under `O=C1CCCCCN1`, -0.19.
Molecule `Cc1ccc(O)c(C)c1` came in with a logP of 2.3.
Under `NC(=O)c1ccccc1O` stands 1.28.
Under `O=c1[nH]c2nc(O)nc(O)c2[nH]1` stands -2.17; under `c1cnc2c(c1)ccc1ncccc12`, 2.51.
`NC(=O)C(c1ccccc1)c1ccccn1` (stereo not drawn) came in with a logP of 0.83.
With `CC=CC`, the logP came out at 2.33.
The value for `CCCOC(=O)c1ccc(S(N)(=O)=O)cc1` was 1.75; that for `Oc1c(Cl)cc(Cl)c(Cl)c1Cl` was 4.45; that for `Nc1ccc(S(=O)(=O)Nc2nccs2)cc1` was 0.05.
Molecule `c1ccc(-c2ccncc2)cc1` came in with a logP of 2.59.
For `NC(=O)CCCc1ccccn1`, the logP is -0.09.
In turn, `CCCCOc1ccc(CC(=O)NO)cc1` came in with a logP of 2.08.
Under `CC(=O)c1ccc([N+](=O)[O-])cc1` stands 1.53.
For `CNC(=O)CNC(C)=O`, the logP is -1.56.
With `CC(C)(C)NC[C@H](O)COc1ccccc1C1CCCC1`, the logP came to 4.15.
In turn, `COC1C(Cl)C(Cl)C(Cl)C(Cl)C1OC` (stereo not drawn) had a logP of 2.82.
The value for `CC(=O)C(C#N)=NNc1ccccc1Cl` was 4.
The value for `CC(=O)C(C#N)=NNc1cc(C(F)(F)F)ccc1Cl` was 5.08.

As a reminder, the logP is a log measure of how a compound divides between an organic and an aqueous phase. Low values mean lower lipophilicity, high ones higher lipophilicity.
